The test system of experiment [1] is alkaline phosphatase (ALP) activity of human osteoblasts. Briefly: Alkaline phosphatase (ALP) assay in human osteoblasts. Format: cell-based. Particulars: four days; 10^−13-10^−6 M; normal culture conditions. How it is done:
Human osteblast cells (hOB): Cells were isolated from human bone marrow obtained by puncture of the posterior iliac spine of healthy volunteers (aged 20-36): 10-15 ml marrow material was collected in 15 ml PBS+Ca,Mg (Life Technologies, Cat.No. 14040) with 100 U/ml Heparin (Sigma, Cat.No. H-3149). The mononuclear fraction of the marrow was isolated on a Lymphoprep gradient (Nycomed Pharma, Cat.No. 1001967), by centrifugation at 2200 rpm for 30 min. After harvesting, the mononuclear fraction was washed once with culture medium and centrifuged at 1800 rpm for 10 min. Subsequently cells were counted and plated in culture medium at 8×10^6 cells/100 mm dish. hOB medium (all reagents obtained from Life Technologies): MEM w/o Phenol Red w/Glutamax (Cat.No. 041-93013) supplemented with 10% heat inactivated fetal calf serum (Cat.No. 10106) and 0.1% Penicillin/Streptomycin (Cat.No. 15140). Medium was changed the following day and the cells were cultured at 37° C. in 5%CO2 with medium change every 7 days. After 3-4 weeks of culture the cells had reached 70% confluence. […]
• Day 1: Cells were plated in 96-well plates at a conc. of 8000 cells/well (hOB) or 3000 cells/well (ROS) in 200 μl normal culture medium. • Day 2: Medium was changed on the cells. • Day 4: (Day 3 for ROS): Cells were washed with 200 μl MEM, 0.1% BSA (Sigma, Cat.No. A-9418). […] Absorbance was measured using a plate reader at 405 nm. […]

In experiment [2] the test system is isolated guinea pig myocytes. Briefly: Intercellular conductance Gj (GJIC), double patch clamp of cardiomyocyte pairs. Format: cell-based. As to conditions: 10^−8 M. The protocol:
Cell preparation: Cells were isolated from guinea pig hearts by perfusion with collagenase according to the Langendorf method. In brief, guinea pigs were heparinised with an intraperitoneal injection of heparin (1000 IU/kg). After 30 minutes the animal was sacrificed by a blow to the neck followed by cutting the spine at the neck. The chest was opened and the aorta cannulated. Then the cannula was fixed to the aorta by a ligature, exised and perfused with Tyrodes solution for a couple of minutes. The Tyrodes solution had the following composition in mM: Na^+ 135.33, K^+ 4, Cl^− 145, PO4^− 0.33, Mg^2+ 1, Ca^2+ 2, Hepes 10, Glucose 10, pH 7.4. All perfusion media were bubled by 100% oxygen. […]. Then the heart was perfused with high K^+ solution with 0.6 mg/ml collagenase, this was done for 10-15 minutes judged from the apperance of the heart. The atria were cut off, the ventricles minced, whereafter the pieces were stirred in the collagenase solution by gently bubbling with 100% oxygen. […]
Where Ip,pulse and Ip,rest represent the current in the passive cell during the pulse and before the pulse respectively, and Up and Ua represent the voltage of the passive and active cell. […] However, the change in Gj value to a standardized intervention like a drug can be analysed by comparing the relative changes in Gj.

The text below walks through data of US7250397B2, “Antiarrhythmic peptides” (Zealand Pharma A/S, priority 2000, dated 2007).

Entries after “also recorded” stand apart in the source; their conditions may differ.

As for “Ac-D-Tyr-D-Pro-D-4Hyp-Gly-D-Ala-Gly-NH2 [Compound 2]”, the “ALP activity compared to untreated controls” value in experiment [1] is “increased ALP activity at most of the concentrations tested; also recorded: stimulated ALP activity”. Also, the “time of stimulation until steady-state level of Gj” value in experiment [2] is recorded as “about 400 seconds”.
